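Each compound was tested at five concentrations against cells in 96-well plates for 48 hours. GI50: concentration for 50% inhibition of growth. Definition used: TGI = concentration required for complete inhibition of growth.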 Where a SMILES comes first, the peptide text is derived from it. [ ]: non-standard residue; d: D form. The star is where a group is joined. ξ: configuration not given here. ξF = NC(Cc1ccccc1)C(=O)O; Cbz = O=C(OCc1ccccc1)*; Aib = CC(C)(N)C(=O)O

Among the test systems are MDA-N; PC-3 prostate; NCI-H522 lung; A498 renal; SF-268 CNS; UACC-257 melanoma; HS 578T breast; HOP-92 NSCLC; DLD-1 colon; LXFL 529 NSCLC; KM20L2 colon; DMS 114 small cell lung; DMS 273 small cell lung; M19-MEL melanoma.
Holding throughout (test): DTP human tumour cell line panel, 48 h

Consider `COC(=O)C(C)(C)NC(=O)C(Cc1ccccc1)NC(=O)C(C)(C)NC(=O)OCc1ccccc1` (stereo unspecified) (Cbz-[Aib]-[ξF]-[Aib]-OMe), for which the TGI in the experiment with MDA-N, in the experiment on PC-3 prostate, with NCI-H522 lung, in the experiment with A498 renal, in the experiment on SF-268 CNS and with UACC-257 melanoma was above 100 µM each time.

Take `CC(=O)ON1C(=O)c2cccc3cccc(c23)C1=O`: the TGI was 93.3 µM in the experiment on MDA-N; 79.3 µM with HS 578T breast; above 100 µM with PC-3 prostate; 43.6 µM with NCI-H522 lung; above 100 µM in the experiment on HOP-92 NSCLC; 71.5 µM in the experiment with A498 renal. In addition, the values for the TGI with SF-268 CNS and with UACC-257 melanoma were above 100 µM and 67 µM, respectively.

With `CC(C)(CCCCC(C)(C)C1NC(=O)N1)C1NC(=O)N1`, the TGI in the experiment with MDA-N, in the experiment on HS 578T breast, in the experiment on PC-3 prostate, in the experiment with NCI-H522 lung, in the experiment on A498 renal and with SF-268 CNS was above 10 µM throughout.

Consider `Nc1c(-c2ccccc2[N+](=O)[O-])nc2ccccn12`, for which the TGI in the experiment on DLD-1 colon, in the experiment with LXFL 529 NSCLC, in the experiment on HOP-92 NSCLC, in the experiment with KM20L2 colon, with DMS 114 small cell lung and with DMS 273 small cell lung was above 100 µM each time. For the same compound, the TGI in the experiment with SF-268 CNS, in the experiment on UACC-257 melanoma and in the experiment with M19-MEL melanoma was above 100 µM each time.

On to `CCOC(=O)CCC(NC(=O)OCc1ccccc1)C(=O)NC(CCC(=O)OCC)C(=O)NNC(=O)OC(C)(C)C` (stereo unspecified), for which the TGI in the experiment with MDA-N, in the experiment with HS 578T breast, with PC-3 prostate, in the experiment on NCI-H522 lung and in the experiment on HOP-92 NSCLC was above 100 µM in each case.

Consider `c1cncc(O[Si](Oc2cccnc2)(Oc2cccnc2)Oc2cccnc2)c1`, for which the TGI in the experiment on DLD-1 colon, in the experiment with DMS 114 small cell lung, with DMS 273 small cell lung, in the experiment with UACC-257 melanoma and in the experiment on M19-MEL melanoma was above 100 µM throughout.

On to `COc1cc(-c2n/c(=C\c3c(O)[nH]c4cc(Cl)ccc34)cc3c2=Nc2ccccc2-3)cc(OC)c1OC`, for which the GI50 in the experiment on HS 578T breast was 2510 nM; in the experiment with PC-3 prostate, 4.59 µM; in the experiment on NCI-H522 lung, 3.85 µM; in the experiment with A498 renal it was 7.12 µM; in the experiment with SF-268 CNS it was 2720 nM; with UACC-257 melanoma, 4.01 µM. The TGI in the experiment with HS 578T breast was 19 µM; in the experiment with PC-3 prostate, 58.4 µM; with NCI-H522 lung, 18.4 µM; in the experiment with A498 renal it was 27.9 µM; with SF-268 CNS it was 10.5 µM; in the experiment on UACC-257 melanoma it was 18.8 µM.

A word on the TGI: it is the concentration at which net growth stops. High values mean lower sensitivity of the cells, low ones greater sensitivity of the cells. In general, GI50 refers to the concentration that inhibits growth by half.

The values above are taken from PubChem BioAssay (NCI).
